Results reported in ChEMBL document CHEMBL6092214, “Design, synthesis, and pharmacological characterization of sulfonylurea-based NLRP3 inhibitors: Towards an effective therapeutic strategy for Alzheimer's disease” (Eur J Med Chem, 2024).
pIC50, pKd: −log10 of the molar value. One block for each compound: values may come before it. Calls of active or inactive are those of the source. No cut-off for these calls is given here.

How the values were obtained:
[1] = molecular target: T1, NACHT, LRR and PYD domains-containing protein 3 (Homo sapiens, UniProt Q96P20); experiment: Inhibition of NLRP3 inflammasome activation in PMA-differentiated human THP-1 cells assessed as reduction in LPS/MSU-induced IL-1beta secretion preincubated with LPS for 3 hrs followed by compound addition for 30 mins prior to MSU addition and measured after 4 hrs by ELISA method; assay type: cell-based
T1 sequence (Q96P20 whole entry, the tested form may be a part): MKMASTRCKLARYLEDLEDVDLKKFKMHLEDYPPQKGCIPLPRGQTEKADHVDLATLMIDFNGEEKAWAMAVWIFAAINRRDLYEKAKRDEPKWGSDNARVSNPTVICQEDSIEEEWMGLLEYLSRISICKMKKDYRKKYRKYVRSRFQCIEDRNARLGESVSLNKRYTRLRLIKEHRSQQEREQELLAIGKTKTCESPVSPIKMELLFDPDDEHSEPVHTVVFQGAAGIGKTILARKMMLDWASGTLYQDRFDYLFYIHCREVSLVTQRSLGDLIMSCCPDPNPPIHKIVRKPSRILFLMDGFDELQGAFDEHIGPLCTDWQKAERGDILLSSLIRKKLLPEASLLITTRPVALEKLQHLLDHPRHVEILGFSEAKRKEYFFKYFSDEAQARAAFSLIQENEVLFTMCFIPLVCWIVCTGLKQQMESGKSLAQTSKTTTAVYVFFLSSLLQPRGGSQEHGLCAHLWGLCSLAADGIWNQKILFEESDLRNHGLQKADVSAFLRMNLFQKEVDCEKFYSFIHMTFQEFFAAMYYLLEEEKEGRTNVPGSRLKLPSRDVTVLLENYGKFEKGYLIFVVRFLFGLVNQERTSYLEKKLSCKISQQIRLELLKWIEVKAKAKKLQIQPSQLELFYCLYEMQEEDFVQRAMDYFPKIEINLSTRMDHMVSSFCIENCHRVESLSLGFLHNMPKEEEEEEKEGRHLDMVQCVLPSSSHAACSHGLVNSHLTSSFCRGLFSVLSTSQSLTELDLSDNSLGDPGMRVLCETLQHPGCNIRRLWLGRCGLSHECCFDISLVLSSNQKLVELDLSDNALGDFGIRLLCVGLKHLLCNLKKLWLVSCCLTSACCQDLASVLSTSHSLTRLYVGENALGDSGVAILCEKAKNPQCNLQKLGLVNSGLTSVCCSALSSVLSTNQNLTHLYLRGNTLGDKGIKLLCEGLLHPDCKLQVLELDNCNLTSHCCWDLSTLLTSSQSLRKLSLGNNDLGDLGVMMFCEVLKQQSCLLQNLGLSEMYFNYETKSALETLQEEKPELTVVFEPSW

[2] = test system: Mus musculus; experiment: Neuroprotective activity against scopolamine-induced cognitive impairment in AD mouse model assessed as reduction in escape latency at 10 mg/kg administered daily by Morris water maze test; assay type: functional, organism-based
[3] = molecular target: T1, NACHT, LRR and PYD domains-containing protein 3; experiment: Binding affinity to NLRP3 (unknown origin) assessed as dissociation constant by Surface Plasmon Resonance analysis
[4] = test system: Mus musculus; experiment: Anti-aging activity in […] AD mouse model assessed as reduction in beta-galactosidase level at 10 mg/kg administered via gavage daily for 30 days; assay type: functional, organism-based; details: time 30.0 day
[5] = molecular target: T1, NACHT, LRR and PYD domains-containing protein 3; experiment: (§1) Inhibition of NLRP3 inflammasome activation in PMA-differentiated human THP-1 cells assessed as reduction in LPS/ATP-induced IL-1beta secretion at 30 nM preincubated with LPS for 3 hrs followed by compound addition for 30 mins prior to ATP addition and measured after 30 mins by ELISA method; assay type: cell-based; details: time 1.0 hrs
[6] = species on record: Mus musculus; experiment: Neuroprotective activity against scopolamine-induced cognitive impairment in AD mouse model assessed as reduction in escape latency by Morris water maze test; assay type: functional, organism-based; details: dose 5-30 mg/kg
[7] = test system: Mus musculus; experiment: Anti-aging activity in […] AD mouse model assessed as upregulation of IGF-1 expression at 10 mg/kg administered via gavage daily for 30 days; assay type: functional, organism-based; details: time 30.0 day
[8] = molecular target: NACHT, LRR and PYD domains-containing protein 3 (Mus musculus) (UniProt Q8R4B8); experiment: Inhibition of NLRP3 inflammasome activation in mouse BMDM cells assessed as effect on LPS/Nigericin induced pro-IL-1beta expression level at 10 to 40 nM by Western blot analysis; assay type: cell-based; details: dose 10-40 nM
Chain of NACHT, LRR and PYD domains-containing protein 3 (Mus musculus) (Q8R4B8 whole entry, the tested form may be a part): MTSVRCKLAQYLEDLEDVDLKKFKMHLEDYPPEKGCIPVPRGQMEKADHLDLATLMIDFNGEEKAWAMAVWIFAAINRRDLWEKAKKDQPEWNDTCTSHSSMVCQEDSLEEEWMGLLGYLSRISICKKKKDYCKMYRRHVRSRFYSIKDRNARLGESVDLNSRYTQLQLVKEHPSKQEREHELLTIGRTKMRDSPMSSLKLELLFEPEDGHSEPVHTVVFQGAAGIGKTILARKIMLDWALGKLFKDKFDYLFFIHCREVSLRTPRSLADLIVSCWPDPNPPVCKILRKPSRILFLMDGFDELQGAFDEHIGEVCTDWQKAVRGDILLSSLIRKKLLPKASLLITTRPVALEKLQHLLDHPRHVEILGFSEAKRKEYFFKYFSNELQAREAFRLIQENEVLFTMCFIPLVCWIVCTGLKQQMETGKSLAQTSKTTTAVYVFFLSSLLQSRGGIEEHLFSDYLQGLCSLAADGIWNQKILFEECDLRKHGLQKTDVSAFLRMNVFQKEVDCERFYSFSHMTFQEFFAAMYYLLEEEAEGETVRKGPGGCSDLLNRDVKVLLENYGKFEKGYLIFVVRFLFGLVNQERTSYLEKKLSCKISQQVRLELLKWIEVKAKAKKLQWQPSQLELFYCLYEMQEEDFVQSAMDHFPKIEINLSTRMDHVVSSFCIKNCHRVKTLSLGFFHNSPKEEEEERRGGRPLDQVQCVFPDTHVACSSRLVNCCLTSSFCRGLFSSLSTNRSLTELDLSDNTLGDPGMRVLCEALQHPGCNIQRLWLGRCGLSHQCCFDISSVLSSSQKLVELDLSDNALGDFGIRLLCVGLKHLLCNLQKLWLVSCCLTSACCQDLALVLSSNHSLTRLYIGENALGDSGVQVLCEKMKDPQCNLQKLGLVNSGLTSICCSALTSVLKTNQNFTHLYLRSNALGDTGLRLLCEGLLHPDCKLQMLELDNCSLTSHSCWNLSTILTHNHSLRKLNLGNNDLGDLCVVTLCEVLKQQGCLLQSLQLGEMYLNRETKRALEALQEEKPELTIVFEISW

[9] = molecular target: T1, NACHT, LRR and PYD domains-containing protein 3; experiment: as §1, with “LPS/Nigericin-induced” for “LPS/ATP-induced”, “nigericin” for “ATP”; assay type: cell-based; details: time 1.0 hrs
[10] = molecular target: T1, NACHT, LRR and PYD domains-containing protein 3; experiment: Inhibition of NLRP3 inflammasome activation in LPS/Nigericin induced PMA-differentiated human THP-1 cells assessed as effect on mitochondrial membrane potential by Mitotracker staining based immunofluorescence analysis; assay type: cell-based
[11] = Hepatotoxicity in mouse assessed as effect on AST level at 10 mg/kg measured after 30 days; assay type: toxicity, organism-based; details: in vivo, 720 h, time 30 day
[12] = molecular target: NACHT, LRR and PYD domains-containing protein 3 (Mus musculus) (UniProt Q8R4B8); experiment: Inhibition of NLRP3 inflammasome activation in mouse BMDM cells assessed as effect on LPS/Nigericin induced NLRP3 expression level at 10 to 40 nM by Western blot analysis; assay type: cell-based; details: dose 10-40 nM
[13] = test system: Mus musculus; experiment: Locomotor activity in mouse assessed as effect on total distance traveled at 30 mg/kg measured for 1.5 hrs by Open field test; assay type: functional, organism-based
[14] = molecular target: T1, NACHT, LRR and PYD domains-containing protein 3; experiment: as §1, with “in LPS/Nigericin-induced” for “in LPS/ATP-induced”, “at 3” for “at 30”, “to nigericin” for “to ATP”, “method relative to control” for “method”; assay type: cell-based; details: time 1.0 hrs
[15] = molecular target: T1, NACHT, LRR and PYD domains-containing protein 3; experiment: Inhibition of NLRP3 inflammasome activation in LPS/Nigericin induced PMA-differentiated human THP-1 cells assessed as effect on ROS production by measuring red fluorescence by MitoSOX staining based immunofluorescence analysis; assay type: cell-based
[16] = molecular target: NACHT, LRR and PYD domains-containing protein 3 (Mus musculus) (UniProt Q8R4B8); experiment: Inhibition of NLRP3 inflammasome activation in mouse BMDM cells assessed as effect on LPS/Nigericin induced NEK7 expression level at 10 to 40 nM by Western blot analysis; assay type: cell-based; details: dose 10-40 nM
[17] = Hepatotoxicity in mouse assessed as effect on ALT level at 10 mg/kg measured after 30 days; assay type: toxicity, organism-based; details: in vivo, 720 h, time 30 day
[18] = molecular target: T1, NACHT, LRR and PYD domains-containing protein 3; experiment: as §1, with “at 3” for “at 30”, “method relative to control” for “method”; assay type: cell-based; details: time 1.0 hrs
[19] = molecular target: NACHT, LRR and PYD domains-containing protein 3 (Mus musculus) (UniProt Q8R4B8); experiment: Inhibition of NLRP3 inflammasome activation in mouse BMDM cells assessed as effect on LPS/Nigericin induced procaspase-1 expression level at 10 to 40 nM by Western blot analysis; assay type: cell-based; details: dose 10-40 nM
[20] = molecular target: NACHT, LRR and PYD domains-containing protein 3 (Mus musculus) (UniProt Q8R4B8); experiment: Inhibition of NLRP3 inflammasome activation in mouse BMDM cells assessed as decrease in LPS/Nigericin induced caspase-1 level by Western blot analysis; assay type: cell-based; details: dose 10-40 nM
[21] = test system: HEK293; experiment: Cytotoxicity against HEK293 cells assessed as cell viability at 0.39 to 100 uM incubated for 24 hrs by CCK-8 method; assay type: toxicity, cell-based; details: human, hek293, 24 h, dose 0.39-100 µM
[22] = molecular target: NACHT, LRR and PYD domains-containing protein 3 (Mus musculus) (UniProt Q8R4B8); experiment: Inhibition of NLRP3 inflammasome activation in mouse BMDM cells assessed as decrease in LPS/Nigericin induced IL-1 beta level by Western blot analysis; assay type: cell-based; details: dose 10-40 nM
[23] = molecular target: NACHT, LRR and PYD domains-containing protein 3 (Mus musculus) (UniProt Q8R4B8); experiment: Inhibition of NLRP3 inflammasome activation in mouse BMDM cells assessed as effect on LPS/Nigericin induced ASC expression level at 10 to 40 nM by Western blot analysis; assay type: cell-based; details: dose 10-40 nM

SMILES: CCCCNS(=O)(=O)c1cccc(-c2ccc3c(c2NC(=O)NS(=O)(=O)c2cc(C(C)(C)O)co2)CCC3)c1
- pIC50 [1]: < 6.00

SMILES: CCOc1ccc2cc(-c3ccc4c(c3NC(=O)NS(=O)(=O)c3cc(C(C)(C)O)co3)CCC4)ccc2c1
- pIC50 [1]: 7.14

SMILES: CN(C)c1cccc(-c2ccc3c(c2NC(=O)NS(=O)(=O)c2cc(C(C)(C)O)co2)CCC3)c1
- pIC50 [1]: < 6.00

SMILES: O=C(Nc1c(-c2ccc([N+](=O)[O-])cc2)ccc2c1CCC2)NS(=O)(=O)c1ccc2ccccc2c1
- pIC50 [1]: < 6.00

SMILES: CC(C)(O)c1coc(S(=O)(=O)NC(=O)Nc2c(-c3ccnc(F)c3)ccc3c2CCC3)c1
- pIC50 [1]: 7.57

SMILES: COc1cccc(OC)c1-c1ccc2c(c1NC(=O)NS(=O)(=O)c1cc(C(C)(C)O)co1)CCC2
- pIC50 [1]: < 6.00

SMILES: CC(C)(C)c1cc(-c2ccc3c(c2NC(=O)NS(=O)(=O)c2cc(C(C)(C)O)co2)CCC3)cc(C(C)(C)C)c1
- pIC50 [1]: < 6.00

SMILES: COCCOc1ccc(-c2ccc3c(c2NC(=O)NS(=O)(=O)c2cc(C(C)(C)O)co2)CCC3)cc1
- pIC50 [1]: 6.61

SMILES: CC(C)(O)c1coc(S(=O)(=O)NC(=O)Nc2c3c(cc4c2CCC4)CCC3)c1
- Activity [2]: Active

SMILES: CC(C)c1cc(I)cc(C(C)C)c1NC(=O)NS(=O)(=O)c1cc(C(C)(C)O)co1
- pIC50 [1]: 7.51

SMILES: COc1cncc(-c2ccc3c(c2NC(=O)NS(=O)(=O)c2cc(C(C)(C)O)co2)CCC3)c1
- pIC50 [1]: 7.49

SMILES: CC(C)(O)c1coc(S(=O)(=O)NC(=O)Nc2c(-c3cccc(OC(F)(F)F)c3)ccc3c2CCC3)c1
- pIC50 [1]: 6.45

SMILES: CC(C)(O)c1coc(S(=O)(=O)NC(=O)Nc2c3c(cc(Br)c2OC2CCCC2)CCC3)c1
- pIC50 [1]: < 6.00

SMILES: CCCCOc1cccc(-c2ccc3c(c2NC(=O)NS(=O)(=O)c2cc(C(C)(C)O)co2)CCC3)c1
- pIC50 [1]: 6.54

SMILES: O=C(Nc1c(-c2ccc([N+](=O)[O-])cc2)ccc2c1CCC2)NS(=O)(=O)N1CCCC1
- pIC50 [1]: < 6.00

SMILES: O=C(Nc1c(-c2ccc([N+](=O)[O-])cc2)ccc2c1CCC2)NS(=O)(=O)CC1CCCCC1
- pIC50 [1]: < 6.00

SMILES: Cc1cccc(-c2ccc3c(c2NC(=O)NS(=O)(=O)c2cc(C(C)(C)O)co2)CCC3)c1
- pIC50 [1]: 7.12

SMILES: CN[C@H]1COc2c(S(=O)(=O)NC(=O)Nc3c(-c4ccc([N+](=O)[O-])cc4)ccc4c3CCC4)cnn2C1
- pIC50 [1]: 6.59

SMILES: CC(C)c1cccc(-c2ccc3c(c2NC(=O)NS(=O)(=O)c2cc(C(C)(C)O)co2)CCC3)c1
- pIC50 [1]: < 6.00

SMILES: Cc1cc(F)ccc1-c1ccc2c(c1NC(=O)NS(=O)(=O)c1cc(C(C)(C)O)co1)CCC2
- pIC50 [1]: 6.25

SMILES: O=C(Nc1c(-c2ccc([N+](=O)[O-])cc2)ccc2c1CCC2)NS(=O)(=O)N1CCOCC1
- pIC50 [1]: < 6.00

SMILES: CCCCNC(=O)c1cccc(-c2ccc3c(c2NC(=O)NS(=O)(=O)c2cc(C(C)(C)O)co2)CCC3)c1
- pIC50 [1]: 7.08

Continued, in another order:

- pIC50 [1]: < 6.00
SMILES: CCCCc1ccc(-c2ccc3c(c2NC(=O)NS(=O)(=O)c2cc(C(C)(C)O)co2)CCC3)cc1

- pIC50 [1]: 6.45
SMILES: O=C(Nc1c(-c2ccc([N+](=O)[O-])cc2)ccc2c1CCC2)NS(=O)(=O)c1ccccc1

- pIC50 [1]: < 6.00
SMILES: O=C(Nc1c(-c2ccc([N+](=O)[O-])cc2)ccc2c1CCC2)NS(=O)(=O)c1cccnc1

- pIC50 [1]: < 6.00
SMILES: CN(C)Cc1ccc(S(=O)(=O)NC(=O)Nc2c(-c3ccc([N+](=O)[O-])cc3)ccc3c2CCC3)cc1

- pIC50 [1]: < 6.00
SMILES: Cc1ccc(S(=O)(=O)NC(=O)Nc2c(-c3ccc([N+](=O)[O-])cc3)ccc3c2CCC3)cc1

- pIC50 [1]: 6.17
SMILES: O=C(Nc1c(-c2ccc([N+](=O)[O-])cc2)ccc2c1CCC2)NS(=O)(=O)c1cnn2c1OCCC2

- pIC50 [1]: 6.48
SMILES: COC(=O)c1csc(S(=O)(=O)NC(=O)Nc2c(-c3ccc([N+](=O)[O-])cc3)ccc3c2CCC3)c1

- pIC50 [1]: < 6.00
SMILES: Cn1ccc(S(=O)(=O)NC(=O)Nc2c(-c3ccc([N+](=O)[O-])cc3)ccc3c2CCC3)n1

- pIC50 [1]: < 6.00
SMILES: O=C(Nc1c(-c2ccc([N+](=O)[O-])cc2)ccc2c1CCC2)NS(=O)(=O)CCO

- pIC50 [1]: < 6.00
SMILES: Cc1ccsc1S(=O)(=O)NC(=O)Nc1c(-c2ccc([N+](=O)[O-])cc2)ccc2c1CCC2

- pIC50 [1]: 6.67
SMILES: O=C(Nc1c(-c2ccc([N+](=O)[O-])cc2)ccc2c1CCC2)NS(=O)(=O)c1cccc(Br)n1

- pIC50 [1]: 7.27
SMILES: O=C(Nc1c(-c2ccc([N+](=O)[O-])cc2)ccc2c1CCC2)NS(=O)(=O)c1cccs1

- pIC50 [1]: 8.22
SMILES: CC(C)(O)c1coc(S(=O)(=O)NC(=O)Nc2c(-c3ccc([N+](=O)[O-])cc3)ccc3c2CCC3)c1

- pIC50 [1]: < 6.00
SMILES: CC(C)(O)CS(=O)(=O)NC(=O)Nc1c(-c2ccc([N+](=O)[O-])cc2)ccc2c1CCC2

- pIC50 [1]: < 6.00
SMILES: Cc1nn(C)cc1S(=O)(=O)NC(=O)Nc1c(-c2ccc([N+](=O)[O-])cc2)ccc2c1CCC2

- pKd [3]: 7.71
- inhibition [8]: inactive
- inhibition [10]: inactive
- pIC50 [1]: 7.92
- inhibition [12]: inactive
- inhibition [14]: > 50%
- inhibition [15]: inactive
- inhibition [16]: inactive
- inhibition [18]: > 50%
- inhibition [19]: inactive
- inhibition [20]: Dose-dependent-effect
- inhibition [22]: Dose-dependent-effect
- inhibition [23]: inactive
SMILES: CC(C)(O)c1csc(S(=O)(=O)NC(=O)Nc2c(-c3ccc([N+](=O)[O-])cc3)ccc3c2CCC3)c1
- Activity [4]: Active
- inhibition [5]: Active; Compound Nearly Abolished Il-1 Beta Secretion
- Activity [6]: Dose-dependent-effect
- Activity [7]: Active
- inhibition [9]: Active; Compound Nearly Abolished Il-1 Beta Secretion
- Activity [11]: Non-toxic
- Activity [13]: Active
- Activity [17]: Non-toxic
- Activity [21]: Non-toxic

- pIC50 [1]: 6.39
SMILES: Nc1cccc(S(=O)(=O)NC(=O)Nc2c(-c3ccc([N+](=O)[O-])cc3)ccc3c2CCC3)c1

- pIC50 [1]: < 6.00
SMILES: O=C(Nc1c(-c2ccc([N+](=O)[O-])cc2)ccc2c1CCC2)NS(=O)(=O)c1cc(Br)cs1

- pIC50 [1]: 6.37
SMILES: CC(=O)c1ccc(S(=O)(=O)NC(=O)Nc2c(-c3ccc([N+](=O)[O-])cc3)ccc3c2CCC3)cc1
